# Laboratory results taken from patent publication US20260374756A1, “HETEROCYCLIC COMPOUNDS AS INHIBITORS OF MONOACYLGLYCEROL LIPASE (MAGL)” (Hoffmann-La Roche Inc., priority 2022, published 2026).
# Target: T1, hMAGL (Homo sapiens, UniProt Q99685)
# T1 sequence (Q99685 1-303): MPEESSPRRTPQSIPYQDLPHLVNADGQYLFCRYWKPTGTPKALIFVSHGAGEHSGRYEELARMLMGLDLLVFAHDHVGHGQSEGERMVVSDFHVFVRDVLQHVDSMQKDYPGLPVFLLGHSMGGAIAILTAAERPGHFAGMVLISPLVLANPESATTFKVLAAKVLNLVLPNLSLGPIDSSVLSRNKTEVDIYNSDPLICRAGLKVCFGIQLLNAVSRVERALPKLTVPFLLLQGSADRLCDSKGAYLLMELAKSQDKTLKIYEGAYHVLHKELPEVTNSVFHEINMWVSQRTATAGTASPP
# Assay: 2-AG assay: MAGL inhibition, hydrolysis of 2-arachidonoylglycerol to arachidonic acid followed by mass spectrometry
# Assay type: biochemical
# Outline: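 MAGL preincubated with compound 15 min at RT in 50 mM Tris, 1 mM EDTA, 0.01% Tween-20, 2.5% DMSO; reaction started with 8 μM 2-AG (final), […], 30 min at RT. Quenched with acetonitrile containing d8-arachidonic acid; arachidonic acid quantified by RapidFire SPE-triple quad MS as arachidonic acid/d8 ratio.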
row,SMILES,IC50 [nM]
1,"O=C(N1CC2(CC(Cn3cc(S(=O)(=O)C(F)(F)F)cn3)C2)C1)N1CC2(CC(n3cnc(C(F)(F)F)n3)C2)C1 [Example 353, [6-[3-(trifluoromethyl)-1,2,4-triazol-1-yl]-2-azaspiro[3.3]heptan-2-yl]-[6-[(4-triflylpyrazol-1-yl)methyl]-2-azaspiro[3.3]heptan-2-yl]methanone]",0.19
2,"O=C(N1CC2(CC(Cc3cn[nH]c3C(F)(F)F)C2)C1)N1CC2(CC(n3cnc(C(F)F)n3)C2)C1 [Example 346, [6-[3-(difluoromethyl)-1,2,4-triazol-1-yl]-2-azaspiro[3.3]heptan-2-yl]-[6-[[5-(trifluoromethyl)-1H-pyrazol-4-yl]methyl]-2-azaspiro[3.3]heptan-2-yl]methanone]",1.99
3,O=C(N1CC2(CC(n3cnc(C(F)(F)F)n3)C2)C1)N1CC2(CN(Cc3nc(C(F)(F)F)cs3)C2)C1 [Example 51],17
4,"O=C(N1CC2(CC(n3cnc(C(F)(F)F)n3)C2)C1)N1CC2(CN(Cc3cc(C4CCC4)[nH]n3)C2)C1 [Example 273, [6-[(5-cyclobutyl-1H-pyrazol-3-yl)methyl]-2,6-diazaspiro[3.3]heptan-2-yl]-[6-[3-(trifluoromethyl)-1,2,4-triazol-1-yl]-2-azaspiro[3.3]heptan-2-yl]methanone]",12
5,O=C(N1CC2(CCN(Cc3cc(C(F)(F)F)[nH]n3)CC2)C1)N1CC2(CC(n3cnc(C(F)(F)F)n3)C2)C1 [Example 28],20.5
6,"Cn1ncc(CN2CC3(C2)CN(C(=O)N2CC4(CC(n5cnc(C(F)(F)F)n5)C4)C2)C3)c1S(N)(=O)=O [Example 250, 2-methyl-4-[[2-[6-[3-(trifluoromethyl)-1,2,4-triazol-1-yl]-2-azaspiro[3.3]heptane-2-carbonyl]-2,6-diazaspiro[3.3]heptan-6-yl]methyl]pyrazole-3-sulfonamide]",969
7,"O=C(N1CC2(CC(Cc3n[nH]c(C4CC4)n3)C2)C1)N1CC2(CC(n3cnc(C(F)F)n3)C2)C1 [Example 318, [6-[(5-cyclopropyl-1H-1,2,4-triazol-3-yl)methyl]-2-azaspiro[3.3]heptan-2-yl]-[6-[3-(difluoromethyl)-1,2,4-triazol-1-yl]-2-azaspiro[3.3]heptan-2-yl]methanone]",62.8
8,"CS(=O)(=O)c1cnn(CC2CC3(C2)CN(C(=O)N2CC4(CC(n5cnc(C(F)(F)F)n5)C4)C2)C3)c1 [Example 327, [6-[(4-mesylpyrazol-1-yl)methyl]-2-azaspiro[3.3]heptan-2-yl]-[6-[3-(trifluoromethyl)-1,2,4-triazol-1-yl]-2-azaspiro[3.3]heptan-2-yl]methanone]",22.2
9,"O=C(N1CC2(CC(c3cc(C4CC4)n[nH]3)C2)C1)N1CC2(CN(Cc3ncc(C(F)(F)F)s3)C2)C1 [Example 147, [6-(3-cyclopropyl-1H-pyrazol-5-yl)-2-azaspiro[3.3]heptan-2-yl]-[6-[[5-(trifluoromethyl)thiazol-2-yl]methyl]-2,6-diazaspiro[3.3]heptan-2-yl]methanone]",1.04
10,"CC(C)(C)c1coc(CN2CC3(C2)CN(C(=O)N2CC4(CC(n5cnc(C6CC6)n5)C4)C2)C3)n1 [Example 98, [6-[(4-tert-butyloxazol-2-yl)methyl]-2,6-diazaspiro[3.3]heptan-2-yl]-[6-(3-cyclopropyl-1,2,4-triazol-1-yl)-2-azaspiro[3.3]heptan-2-yl]methanone]",0.96
11,"O=C(N1CC2(CC(Cn3cnc(C(F)(F)F)c3)C2)C1)N1CC2(CC(n3cnc(C4(O)CC4)n3)C2)C1 [Example 41, [6-[3-(1-hydroxycyclopropyl)-1,2,4-triazol-1-yl]-2-azaspiro[3.3]heptan-2-yl]-[6-[[4-(trifluoromethyl)imidazol-1-yl]methyl]-2-azaspiro[3.3]heptan-2-yl]methanone]",93.7
12,"O=C(N1CC2(CC(Cc3cnn4ccc(C(F)(F)F)nc34)C2)C1)N1CC2(CC(n3cnc(C4CC4)n3)C2)C1 [Example 358, [6-(3-cyclopropyl-1,2,4-triazol-1-yl)-2-azaspiro[3.3]heptan-2-yl]-[6-[[5-(trifluoromethyl)pyrazolo[1,5-a]pyrimidin-3-yl]methyl]-2-azaspiro[3.3]heptan-2-yl]methanone]",0.09
13,"O=C(N1CC2(CCN(Cc3nc(C(F)(F)F)cs3)CC2)C1)N1CC2(CC(n3cnc(C4(O)CC4)n3)C2)C1 [Example 175, [6-[3-(1-hydroxycyclopropyl)-1,2,4-triazol-1-yl]-2-azaspiro[3.3]heptan-2-yl]-[7-[[4-(trifluoromethyl)thiazol-2-yl]methyl]-2,7-diazaspiro[3.5]nonan-2-yl]methanone]",81.2
14,"O=C(N1CC2(CC(Cn3cnc(C(F)(F)F)n3)C2)C1)N1CC2(CC(c3cc(C4CC4)n[nH]3)C2)C1 [Example 126, [6-(3-cyclopropyl-1H-pyrazol-5-yl)-2-azaspiro[3.3]heptan-2-yl]-[6-[[3-(trifluoromethyl)-1,2,4-triazol-1-yl]methyl]-2-azaspiro[3.3]heptan-2-yl]methanone]",0.78
15,"O=C(N1CC2(CC(Cn3cc(C4(C(F)(F)F)CC4)cn3)C2)C1)N1CC2(CC(n3cnc(C4(O)CC4)n3)C2)C1 [Example 60, [6-[3-(1-hydroxycyclopropyl)-1,2,4-triazol-1-yl]-2-azaspiro[3.3]heptan-2-yl]-[6-[[4-[1-(trifluoromethyl)cyclopropyl]pyrazol-1-yl]methyl]-2-azaspiro[3.3]heptan-2-yl]methanone]",1.63
16,"O=C(N1CC2(CC(Cc3cnn(CC(F)(F)F)n3)C2)C1)N1CC2(CC(n3cnc(C(F)(F)F)n3)C2)C1 [Example 340, [6-[[2-(2,2,2-trifluoroethyl)triazol-4-yl]methyl]-2-azaspiro[3.3]heptan-2-yl]-[6-[3-(trifluoromethyl)-1,2,4-triazol-1-yl]-2-azaspiro[3.3]heptan-2-yl]methanone]",3.62
17,"O=C(N1CC2(CC(n3cnc(C4CC4)n3)C2)C1)N1CC2(CN(Cc3noc(C(F)(F)F)n3)C2)C1 [Example 323, [6-(3-cyclopropyl-1,2,4-triazol-1-yl)-2-azaspiro[3.3]heptan-2-yl]-[6-[[5-(trifluoromethyl)-1,2,4-oxadiazol-3-yl]methyl]-2,6-diazaspiro[3.3]heptan-2-yl]methanone]",36.3

# Further compounds by falling IC50, results first:
row,IC50 [nM],SMILES
1,55,"O=C(N1CC2(CC(n3cnc(C(F)(F)F)n3)C2)C1)N1CC2(CN(Cc3nc(C(F)(F)F)no3)C2)C1 [Example 172, [6-[[3-(trifluoromethyl)-1,2,4-oxadiazol-5-yl]methyl]-2,6-diazaspiro[3.3]heptan-2-yl]-[6-[3-(trifluoromethyl)-1,2,4-triazol-1-yl]-2-azaspiro[3.3]heptan-2-yl]methanone]"
2,52.9,"O=C(N1CC2(CC(n3cnc(C(F)(F)F)n3)C2)C1)N1CC2(CN(Cc3cnc(C(F)(F)F)o3)C2)C1 [Example 211, [6-[[2-(trifluoromethyl)oxazol-5-yl]methyl]-2,6-diazaspiro[3.3]heptan-2-yl]-[6-[3-(trifluoromethyl)-1,2,4-triazol-1-yl]-2-azaspiro[3.3]heptan-2-yl]methanone]"
3,44.9,"O=C(N1CC2(CC(Cc3cn(CC(F)(F)F)nn3)C2)C1)N1CC2(CC(n3cnc(C4(O)CC4)n3)C2)C1 [Example 254, [6-[3-(1-hydroxycyclopropyl)-1,2,4-triazol-1-yl]-2-azaspiro[3.3]heptan-2-yl]-[6-[[1-(2,2,2-trifluoroethyl)triazol-4-yl]methyl]-2-azaspiro[3.3]heptan-2-yl]methanone]"
4,8.94,"O=C(N1CC2(CC(Cc3nc(C(F)(F)F)cs3)C2)C1)N1CC2(CC(n3cnc(C4(O)CC4)n3)C2)C1 [Example 106, [6-[3-(1-hydroxycyclopropyl)-1,2,4-triazol-1-yl]-2-azaspiro[3.3]heptan-2-yl]-[6-[[4-(trifluoromethyl)thiazol-2-yl]methyl]-2-azaspiro[3.3]heptan-2-yl]methanone]"
5,7.9,"O=C(N1CC2(CC(n3cnc(C4CC4)n3)C2)C1)N1CC2(CN(Cc3cn[nH]c3C(F)(F)F)C2)C1 [Example 50, [6-(3-cyclopropyl-1,2,4-triazol-1-yl)-2-azaspiro[3.3]heptan-2-yl]-[6-[[5-(trifluoromethyl)-1H-pyrazol-4-yl]methyl]-2,6-diazaspiro[3.3]heptan-2-yl]methanone]"
6,4.16,"O=C(N1CC2(CC(Cn3cnc(C(F)(F)F)c3)C2)C1)N1CC2(CC(n3cnc(C4CC4)n3)C2)C1 [Example 40, [6-(3-cyclopropyl-1,2,4-triazol-1-yl)-2-azaspiro[3.3]heptan-2-yl]-[6-[[4-(trifluoromethyl)imidazol-1-yl]methyl]-2-azaspiro[3.3]heptan-2-yl]methanone]"
7,3.7,"Cc1cc(C(F)(F)F)n(CC2CC3(C2)CN(C(=O)N2CC4(CC(n5cnc(C(F)(F)F)n5)C4)C2)C3)n1 [Example 71, [6-[[3-methyl-5-(trifluoromethyl)pyrazol-1-yl]methyl]-2-azaspiro[3.3]heptan-2-yl]-[6-[3-(trifluoromethyl)-1,2,4-triazol-1-yl]-2-azaspiro[3.3]heptan-2-yl]methanone]"
8,1.06,"O=C(N1CC2(CC(Cn3cnc(C(F)(F)F)n3)C2)C1)N1CC2(CC(n3cnc(C4CC4)n3)C2)C1 [Example 127, [6-(3-cyclopropyl-1,2,4-triazol-1-yl)-2-azaspiro[3.3]heptan-2-yl]-[6-[[3-(trifluoromethyl)-1,2,4-triazol-1-yl]methyl]-2-azaspiro[3.3]heptan-2-yl]methanone]"
